Experimental data as given in patent publication US6914045B2, “Glycopeptide antibiotics” (Wyeth Holdings Corporation, priority 2001, dated 2005).
≈ marks a conversion by molar mass, not a printed value.

Tests used:
Assay in all cases: in vitro antibacterial evaluation, MIC by broth dilution
Format in all cases: cell-based
[1] = system: Escherichia coli; conditions: 18 hours at 35° C.
How it was run: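 Broth dilution MIC per NCCLS M7-A2 in Mueller-Hinton II medium, inoculum 5×10^5 CFU/mL, antibiotic range 64-0.06 μg/mL. MIC taken as lowest concentration inhibiting growth.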

[2] = system: Staphylococcus sp.; conditions: broth dilution, 18 hours at 35° C.
Experimental: (§1) Methods for in vitro Antibacterial Evaluation (Table 1)
(§2) The minimum inhibitory concentration (MIC), the lowest concentration of the antibiotic which inhibits growth of the test organism, is determined by the broth dilution method using Muller-Hinton II […] (Baltimore Biological Laboratories) following the recommendations of the National Committee for Clinical Laboratory Standards [Methods for dilution antimicrobial susceptibility tests for bacteria that grow aerobically, approved standard M7-A2, National Committee for Clinical Laboratory Standards, Villanova, Pa.].
(§3) An inoculum level of 5×10^5 CFU/mL, and a range of antibiotic concentrations (64-0.06 μg/mL) is used. […] The test organisms include a spectrum of Gram-positive bacteria comprised of Staphylococcus sp., Streptococcus sp. and Enterococcus sp. These organisms include recent clinical isolates that are resistant to methicillin, penicillin and/or vancomycin.

[3] = system: Streptococcus sp.; conditions: broth dilution, 18 hours at 35° C.
Experimental: as §1, §2, §3

[4] = system: Enterococcus sp.; conditions: broth dilution, 18 hours at 35° C.
Experimental: as §1, §2, §3

CC(c1ccccc1)C1NC(=O)CNC(=O)C(CO)NC(=O)C(C(O)C2CNC(=N)N2C2OC(COC(=O)C(c3ccccc3)c3ccccc3)C(O)C(O)C2O)NC(=O)C(C(O)C2CNC(=N)N2)NC(=O)C(Cc2ccc(OC3OC(CO)C(OC4OC(CO)C(O)C(O)C4O)C(O)C3O)cc2)NC1=O (stereo not drawn) [Example 96, Cyclo[glycyl-β-methylphenylalanyl-O-(4-O-hexopyranosylhexoipyranosyl)tyrosyl-3-(2-iminoimidazolidin-4-yl)seryl-3-[3-[6-O-(diphenylacetyl)hexopyranosyl]-2-iminoimidazolidin-4-yl]-serylseryl]]
MIC Escherichia coli (ATCC 25922) [1]: >128 µg/mL
MIC Coagulase Negative Staphylococcus (GC 4547) [2]: >128 µg/mL
MIC Coagulase Negative Staphylococcus (GC 4548) [2]: >128 µg/mL
MIC Coagulase Negative Staphylococcus (GC 4549) [2]: >128 µg/mL
MIC Coagulase Negative Staphylococcus (GC 4551) [2]: >128 µg/mL
MIC Coagulase Negative Staphylococcus (ID-3941) [2]: 128 µg/mL (≈ 85.9 µM)
MIC Staphylococcus aureus-SMITH (GC 4543) [2]: >128 µg/mL
MIC Staphylococcus haemolyticus (GC 4546) [2]: >128 µg/mL
MIC Staphylococcus aureus (ATCC 29213) ([2]; strain ATCC 29213): >128 µg/mL
MIC Staphylococcus aureus (GC 1131) ([2]; strain GC 1131): >128 µg/mL
MIC Staphylococcus aureus (GC 4541) ([2]; strain GC 4541): >128 µg/mL
MIC Staphylococcus aureus (GC 4542) ([2]; strain GC 4542): >128 µg/mL
MIC Staphylococcus aureus-SMITH (GC 4543) ([2]; strain GC 4543): >128 µg/mL
MIC Staphylococcus aureus (GC 4544) ([2]; strain GC 4544): >128 µg/mL
MIC Staphylococcus aureus (GC 4545) ([2]; strain GC 4545): >128 µg/mL
MIC Staphylococcus haemolyticus (GC 4546) ([2]; strain GC 4546): >128 µg/mL
MIC Coagulase Negative Staphylococcus (GC 4547) ([2]; strain GC 4547): >128 µg/mL
MIC Coagulase Negative Staphylococcus (GC 4548) ([2]; strain GC 4548): >128 µg/mL
MIC Coagulase Negative Staphylococcus (GC 4549) ([2]; strain GC 4549): >128 µg/mL
MIC Coagulase Negative Staphylococcus (GC 4551) ([2]; strain GC 4551): >128 µg/mL
MIC Coagulase Negative Staphylococcus (ID-3941) ([2]; strain ID-3941): 128 µg/mL (≈ 85.9 µM)
MIC Streptococcus agalactiae (GC 4564) [3]: >128 µg/mL
MIC Streptococcus pneumoniae (GC 4565) [3]: >128 µg/mL
MIC Streptococcus pyogenes (ID-3187) [3]: >128 µg/mL
MIC Streptococcus agalactiae (GC 4564) ([3]; strain GC 4564): >128 µg/mL
MIC Streptococcus pneumoniae (GC 4565) ([3]; strain GC 4565): >128 µg/mL
MIC Streptococcus pyogenes (ID-3187) ([3]; strain ID-3187): >128 µg/mL
MIC Enterococcus avium (GC 4558) ([4]; Enterococcus avium (GC 4558)): >128 µg/mL
MIC Enterococcus faecalis (ATCC 29212) ([4]; Enterococcus faecalis (ATCC 29212)): >128 µg/mL
MIC Enterococcus faecalis (GC 4552) ([4]; Enterococcus faecalis (GC 4552)): >128 µg/mL
MIC Enterococcus faecalis (GC 4553) ([4]; Enterococcus faecalis (GC 4553)): >128 µg/mL
MIC Enterococcus faecalis (GC 4554) ([4]; Enterococcus faecalis (GC 4554)): >128 µg/mL
MIC Enterococcus faecium (GC 2243) ([4]; Enterococcus faecium (GC 2243)): >128 µg/mL
MIC Enterococcus faecium (GC 4556) ([4]; Enterococcus faecium (GC 4556)): >128 µg/mL
MIC Enterococcus faecium (GC 4557) ([4]; Enterococcus faecium (GC 4557)): 128 µg/mL (≈ 85.9 µM)
MIC Enterococcus avium (GC 4558) [4]: >128 µg/mL
MIC Enterococcus faecalis (ATCC 29212) [4]: >128 µg/mL
MIC Enterococcus faecalis (GC 2242) [4]: >128 µg/mL
MIC Enterococcus faecalis (GC 4552) [4]: >128 µg/mL
MIC Enterococcus faecalis (GC 4553) [4]: >128 µg/mL
MIC Enterococcus faecalis (GC 4554) [4]: >128 µg/mL
MIC Enterococcus faecium (GC 2243) [4]: >128 µg/mL
MIC Enterococcus faecium (GC 4556) [4]: >128 µg/mL
MIC Enterococcus faecium (GC 4557) [4]: 128 µg/mL (≈ 85.9 µM)
MIC Enterococcus faecalis (GC 2242) ([4]; strain GC 2242): >128 µg/mL
